The text below walks through data of ChEMBL document CHEMBL1150637, “African elephant sesquiterpenes. II. Identification and synthesis of new derivatives of 2,3-dihydrofarnesol” (J Nat Prod, 2002).

The subject of the assay is Mycobacterium tuberculosis. In words: Antimycobacterial activity against Mycobacterium tuberculosis by radiorespirometric bioassay. The format is functional, organism-based.

Activity calls are given as the source filed them. No cut-off for these calls is given here.

For `CC(C)=CCC/C(C)=C/CC/C(C)=C/CO`, the outcome was Active.
